Source: patent US20240368619A1, “METHODS AND COMPOSITIONS FOR PPO HERBICIDE TOLERANCE” (SESVanderHave NV, priority 2021, published 2024)
Where two headings read alike, the source gives them in different places.

Assays:
Assay type in all cases: in vivo, Beta vulgaris
edited sugar beet plants = assay: In vitro growth of regenerated edited plants on media containing SAF; conditions: media containing SAF 2.5 μM
Protocol: (§1) In other experiments, screening for resistance to PPO herbicides was done on 25 regenerated sugar beet plants obtained after transfection of guard cell protoplasts by growing these plants (8 clones or copies per plant) on media containing SAF at a concentration of 2.5 μM. Visual observation of growth was done after 20 to 28 days. Plants were scored visually according to their growth, and marked “OK” for plants showing growth, “Bit growth” for plants showing limited growth, “No” for plants showing no growth, or “Dead” for plants that were dead after SAF exposure. The concentration of SAF used in this screen was identified as impacting severely on regenerated wild-type plants obtained after protoplast isolation and regeneration from the sugar beet genotype, from which guard cell protoplasts are isolated for transfection.

[1] = test system: regenerated wild-type sugar beet plants; assay: In vitro growth of regenerated wild-type plants on media containing SAF; conditions: media containing SAF 2.5 μM; wild-type genotype
Protocol: as §1

[2] = test system: sugar beet plants edited at position 126 showing another type of edit than the expected mutation; conditions: SAF 1X, 200 g a.i./ha, 17 days after spraying
Protocol: (§2) In other experiments, plants carrying the mutation R126L described below in Table 6 were acclimatized in soil for 3-5 weeks and screened for PPO resistance with a spray test of the PPO herbicides Saflufenacil (Brand name TREEVIX at a recommended dose of 200 g a.i./ha), Pyraflufen-ethyl (Brand name EVOLUTION at a recommended dose of 0.8l/ha, or a.i. 26.5 g/l) Saflufenacil (pure compound Sigma at a recommended dose of 200 g a.i./ha). The spray was performed at a concentration of 0.5× and 1× of the recommended dose for Saflufenacil), and 0.2× for Pyraflufen-ethyl). The pure chemical compound SAF used on the regenerated plants in vitro was also used in this screen at 1× recommended dose of 200 g ai/Ha. Water treatment was included as a control. […] In both experiments each sugar beet plant was multiplied in vitro as to include a total of minimum 4 clones or replicates of each edited sugar beet plant per herbicide treatment. The phytotoxicity effect of PPO inhibiting herbicides was measured in mutated sugar beet plants (on a set of minimum 4 clones per edited sugar beet plant) based on a scale from 0% to 100%, or 1 to 5, (i.e. 0% or 1 being no damage/no phytotoxicity observed and 100% or 5, being all plants were completely damaged or killed,) compared to wild-type plants. […]
(§3) No score is provided when the plant has not been tested, noted as NT in the table (not tested). Water treatment was included when enough plants were available. At least 4 copies per edited plant were sprayed. Scores were given on group of 4 copies per edited plant. HDR=edited plant showing the expected mutation R to L at position 126, INDEL=edited plant showing another type of edit than the expected mutation.

[3] = test system: sugar beet plants carrying the R126L mutation; conditions: SAF 1X, 200 g a.i./ha, 17 days after spraying
Protocol: as §2, §3

[4] = test system: wild-type sugar beet plants; assay: Spray test of PPO herbicides on control (Ctrl) sugar beet plants; conditions: SAF 1X, 200 g a.i./ha, 17 days after spraying
Protocol: as §2
No score is provided when the plant has not been tested, noted as NT in the table (not tested). […]

`CC(C)N(C)S(=O)(=O)NC(=O)c1cc(-n2c(=O)cc(C(F)(F)F)n(C)c2=O)c(F)cc1Cl` [SAF, saflufenacil] was tested, and the “growth of edited plants (visual)” value (edited sugar beet plants; 20 to 28 days, edited plants scored as OK and Bit growth) was “good level of SAF tolerance”, the “growth and plant development of edited versus wild-type plants (visual)” value (edited sugar beet plants; 20 days, HTC013 and HTC015 (R126L), 8 copies each, versus wild-type) was “Clear differences in growth, and plant development” and the “effect on growth of regenerated wild-type plants (visual)” value [1] was “severe growth retardation and in some cases lethal effect”. The “phytotoxicity score 1 to 5 (healthy to damaged)” value ([2]; event HTC001 (INDEL)) was 5, the “phytotoxicity score 1 to 5 (healthy to damaged)” value ([2]; event HTC002 (INDEL)) was 4 and the “phytotoxicity score 1 to 5 (healthy to damaged)” value ([2]; event HTC009 (INDEL)) was 4. For the same molecule, the “phytotoxicity score 1 to 5 (healthy to damaged)” value ([2]; event HTC012 (INDEL)) was 4, the “phytotoxicity score 1 to 5 (healthy to damaged)” value ([2]; event HTC014 (INDEL)) was 4 and the “phytotoxicity score 1 to 5 (healthy to damaged)” value ([2]; event HTC016 (INDEL)) was 4. The “phytotoxicity score 1 to 5 (healthy to damaged)” value ([2]; event HTC017 (INDEL)) was 4, the “phytotoxicity score 1 to 5 (healthy to damaged)” value ([2]; event HTC021 (INDEL)) was 5 and the “phytotoxicity score 1 to 5 (healthy to damaged)” value ([2]; event HTC023 (INDEL)) was 2. The “phytotoxicity score 1 to 5 (healthy to damaged)” value ([2]; event HTC028 (INDEL)) was 4, the “phytotoxicity score 1 to 5 (healthy to damaged)” value ([3]; event HTC003 (HDR)) was 4 and the “phytotoxicity score 1 to 5 (healthy to damaged)” value ([3]; event HTC007 (HDR)) was 3. The “phytotoxicity score 1 to 5 (healthy to damaged)” value ([3]; event HTC013 (HDR)) was 2, the “phytotoxicity score 1 to 5 (healthy to damaged)” value ([3]; event HTC015 (HDR)) was 3 and the “phytotoxicity score 1 to 5 (healthy to damaged)” value ([3]; event HTC018 (HDR)) was 2. The “phytotoxicity score 1 to 5 (healthy to damaged)” value ([3]; event HTC024 (HDR)) was 4, the “phytotoxicity score 1 to 5 (healthy to damaged)” value ([3]; event HTC046 (HDR)) was 2 and the “phytotoxicity score 1 to 5 (healthy to damaged)” value ([3]; event HTC056 (HDR)) was 4. The “phytotoxicity score 1 to 5 (healthy to damaged)” value ([4]; B8M52 (Ctrl)) was 5 and the “phytotoxicity score 1 to 5 (healthy to damaged)” value ([4]; HTC005 (Ctrl)) was 5.
